From ChEMBL document CHEMBL1201862, “PubChem BioAssay data set” (2004)
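Each compound was tested at five concentrations against cells in 96-well plates for 48 hours. Abbreviation: GI50, concentration required for 50% inhibition of growth.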 Activity calls are given as the source filed them. Rule as the data show it: active = GI50 up to about 1.1 µM and inactive = higher.

How the values were obtained:
Assay in all cases: DTP human tumour cell line panel, 48 h
HOP-62 = tested on: HOP-62
HCT-15 = tested on: HCT-15
NCI-H460 = tested on: NCI-H460
K562 = tested on: K562
TK-10 = tested on: TK-10
MDA-MB-231 = tested on: MDA-MB-231
HCC 2998 = tested on: HCC 2998
CAKI-1 = tested on: CAKI-1
MCF7 = tested on: MCF7
BT-549 = tested on: BT-549
SF-268 = tested on: SF-268
UACC-62 = tested on: UACC-62
T47D = tested on: T47D
SK-MEL-5 = tested on: SK-MEL-5
SN12C = tested on: SN12C
786-0 = tested on: 786-0
ACHN = tested on: ACHN
PC-3 = tested on: PC-3
COLO 205 = tested on: COLO 205
LOX IMVI = tested on: LOX IMVI
IGROV-1 = tested on: IGROV-1
SNB-19 = tested on: SNB-19
EKVX = tested on: EKVX
HT-29 = tested on: HT-29
UACC-257 = tested on: UACC-257
DU-145 = tested on: DU-145
Malme-3M = tested on: Malme-3M
SW-620 = tested on: SW-620
MDA-N = tested on: MDA-N
HCT-116 = tested on: HCT-116
SK-OV-3 = tested on: SK-OV-3
NCI-H226 = tested on: NCI-H226
KM12 = tested on: KM12
RXF 393 = tested on: RXF 393
OVCAR-3 = tested on: OVCAR-3
OVCAR-8 = tested on: OVCAR-8
OVCAR-4 = tested on: OVCAR-4
SF-295 = tested on: SF-295
A498 = tested on: A498
A549 = tested on: A549
NCI-H23 = tested on: NCI-H23
MDA-MB-435 = tested on: MDA-MB-435
UO-31 = tested on: UO-31
NCI-H522 = tested on: NCI-H522
U-251 = tested on: U-251
SK-MEL-28 = tested on: SK-MEL-28
SK-MEL-2 = tested on: SK-MEL-2
MOLT-4 = tested on: MOLT-4
HL-60 = tested on: HL-60
OVCAR-5 = tested on: OVCAR-5
M14 = tested on: M14
HOP-92 = tested on: HOP-92
SF-539 = tested on: SF-539
SNB-75 = tested on: SNB-75
Hs-578T = tested on: Hs-578T
CCRF-CEM = tested on: CCRF-CEM
NCI/ADR-RES = tested on: NCI/ADR-RES

## CC1OC(OC2C(O[C@H]3CC[C@@H]4C(=CC[C@@H]5[C@@]4(C)C(=O)C[C@]4(C)[C@@H]([C@H](C)CC[C@@H](O)C(C)(C)O)CC[C@@]54C)C3(C)C)OC(CO)C(O)C2O)C(O)C(O)C1O (some centres not stated)
HOP-62
  GI50: > 100 µM (inactive)
HCT-15
  GI50: > 100 µM
NCI-H460
  GI50: > 100 µM (inactive)
K562
  GI50: 49 µM (inactive)
TK-10
  GI50: > 100 µM (inactive)
MDA-MB-231
  GI50: > 100 µM (inactive)
HCC 2998
  GI50: > 100 µM (inactive)
CAKI-1
  GI50: > 100 µM (inactive)
MCF7
  GI50: > 100 µM (inactive)
BT-549
  GI50: > 100 µM (inactive)
SF-268
  GI50: > 100 µM (inactive)
UACC-62
  GI50: > 100 µM (inactive)
T47D
  GI50: > 100 µM (inactive)
SK-MEL-5
  GI50: > 100 µM (inactive)
SN12C
  GI50: > 100 µM (inactive)
786-0
  GI50: > 100 µM (inactive)
ACHN
  GI50: > 100 µM (inactive)
PC-3
  GI50: > 100 µM (inactive)
COLO 205
  GI50: > 100 µM (inactive)
LOX IMVI
  GI50: > 100 µM (inactive)
IGROV-1
  GI50: 75.5 µM (inactive)
SNB-19
  GI50: > 100 µM (inactive)
EKVX
  GI50: > 100 µM (inactive)
HT-29
  GI50: > 100 µM (inactive)
UACC-257
  GI50: > 100 µM (inactive)
DU-145
  GI50: > 100 µM (inactive)
Malme-3M
  GI50: > 100 µM (inactive)
SW-620
  GI50: 35.3 µM (inactive)
MDA-N
  GI50: > 100 µM (inactive)
HCT-116
  GI50: > 100 µM (inactive)
SK-OV-3
  GI50: > 100 µM (inactive)
NCI-H226
  GI50: > 100 µM (inactive)
KM12
  GI50: > 100 µM (inactive)
RXF 393
  GI50: > 100 µM (inactive)
OVCAR-3
  GI50: > 100 µM (inactive)
OVCAR-8
  GI50: > 100 µM (inactive)
OVCAR-4
  GI50: > 100 µM (inactive)
SF-295
  GI50: > 100 µM (inactive)
A498
  GI50: > 100 µM (inactive)
A549
  GI50: > 100 µM (inactive)
NCI-H23
  GI50: > 100 µM (inactive)
MDA-MB-435
  GI50: > 100 µM (inactive)
UO-31
  GI50: > 100 µM (inactive)
NCI-H522
  GI50: > 100 µM (inactive)
U-251
  GI50: > 100 µM (inactive)
SK-MEL-28
  GI50: > 100 µM (inactive)
SK-MEL-2
  GI50: > 100 µM (inactive)
MOLT-4
  GI50: 37.2 µM (inactive)
HL-60
  GI50: > 100 µM (inactive)
OVCAR-5
  GI50: > 100 µM (inactive)
M14
  GI50: > 100 µM (inactive)
HOP-92
  GI50: > 100 µM (inactive)
SF-539
  GI50: > 100 µM (inactive)
SNB-75
  GI50: > 100 µM (inactive)
Hs-578T
  GI50: > 100 µM (inactive)
CCRF-CEM
  GI50: 79.3 µM (inactive)
NCI/ADR-RES
  GI50: > 100 µM (inactive)
